{"source": "patent US20230023935A1", "about": "“USE OF MASITINIB FOR THE TREATMENT OF EOSINOPHILIC ASTHMA” (AB SCIENCE, priority 2019, published 2023)", "test_system": "subjects with severe persistent asthma treated with oral corticosteroids", "assay": "Phase 3 study AB07015: masitinib 6 mg/kg/day versus placebo, severe asthma exacerbations by baseline blood eosinophil cohort", "format": "in vivo, human", "settings": "for Rate ratio (Estimate) for asthma exacerbations: Poisson regression", "experimental": "A prospective, multicenter, randomized, double-blind, placebo-controlled, 2-parallel groups, phase 3 study was carried out to compare the efficacy and the safety of masitinib at 6 mg/kg/day versus placebo in the treatment of subjects with severe persistent asthma treated with oral corticosteroids. Said clinical trial (reference AB07015) is registered under the EudraCT number: 2010-020803-63 and under the ClinicalTrials.gov identifier: NCT01449162. Patients were randomized in two groups with a masitinib to placebo randomization ratio of 2:1, respectively: • Group 1: patients receiving masitinib at 6 mg/kg/day; • Group 2: patients receiving placebo. […] According to the statistical analysis plan of study AB07015 (version 1.0 dated 18 Oct. 2019), the overall assessable population was defined as: ‘all patients in full analysis set (FAS) with severe asthma already treated with oral corticosteroids at a minimal daily dose of greater than 5 mg prednisone or equivalent for at least 3 months prior to screening.’ Subgroup analyses were performed with cohort categorization of severe asthma patients according to eosinophil blood count at baseline. The primary efficacy endpoint was defined as the severe asthma exacerbation rate adjusted on the available person-time (time to end of treatment) on full exposure (main period+extension/weaning period). The rate of severe asthma exacerbations was analyzed by applying a Poisson regression (log-link function and Poisson distribution) model. Because eosinophilic inflammation is correlated with asthma severity, it was of interest to perform subgroup analyses according to blood eosinophil levels. Table 2 below presents the results regarding masitinib treatment effect with respect to placebo (rate ratio for asthma exacerbations requiring steroid therapy) in various blood eosinophil level-defined cohorts, and their complement cohorts (according to the primary efficacy analysis population). The rate of asthma exacerbations is analyzed using Poisson regression with treatment group (masitinib, placebo) as the primary variable (covariate) of interest.", "key": {"[1]": {"settings": "masitinib 6 mg/kg/day oral, blood eosinophils equal to or higher than 150 cells/μL (M: 181)"}, "[2]": {"settings": "masitinib 6 mg/kg/day oral, blood eosinophils equal to or lower than 300 cells/μL (M: 145)"}, "[3]": {"settings": "masitinib 6 mg/kg/day oral, blood eosinophils higher than 300 cells/μL (M: 95)"}, "[4]": {"settings": "masitinib 6 mg/kg/day oral, blood eosinophils lower than 150 cells/μL (M: 59)"}, "[5]": {"settings": "masitinib 6 mg/kg/day oral, blood eosinophils ranging from 150 to 300 cells/μL (M: 86)"}, "[6]": {"settings": "masitinib vs placebo, blood eosinophils equal to or higher than 150 cells/μL"}, "[7]": {"settings": "masitinib vs placebo, blood eosinophils equal to or lower than 300 cells/μL"}, "[8]": {"settings": "masitinib vs placebo, blood eosinophils higher than 300 cells/μL"}, "[9]": {"settings": "masitinib vs placebo, blood eosinophils lower than 150 cells/μL"}, "[10]": {"settings": "masitinib vs placebo, blood eosinophils ranging from 150 to 300 cells/μL"}, "[11]": {"settings": "masitinib vs placebo, blood eosinophils equal to or higher than 300 cells/μL"}}, "data": [{"smiles": "Cc1ccc(NC(=O)c2ccc(CN3CCN(C)CC3)cc2)cc1Nc1nc(-c2cccnc2)cs1", "note": "[Masitinib, 4-(4-methylpiperazin-1-ylmethyl)-N-[4-methyl-3-(4-pyridin-3ylthiazol-2-ylamino)phenyl]benzamide]", "values": [{"measurement": "Yearly Exacerbation Rate", "setting": "masitinib 6 mg/kg/day oral, blood eosinophils equal to or higher than 150 cells/μL", "result": "0.34 severe exacerbations per year"}, {"measurement": "Number of Severe Exacerbations", "setting": "[1]", "result": 67}, {"measurement": "n: number of subjects who experienced severe exacerbation", "setting": "[1]", "result": "(n = 39)"}, {"measurement": "exacerbation rate", "setting": "masitinib 6 mg/kg/day oral, blood eosinophils equal to or higher than 300 cells/μL (95 patients)", "result": "0.29 severe exacerbations per year"}, {"measurement": "Yearly Exacerbation Rate", "setting": "masitinib 6 mg/kg/day oral, blood eosinophils equal to or lower than 300 cells/μL", "result": 0.37}, {"measurement": "Number of Severe Exacerbations", "setting": "[2]", "result": 65}, {"measurement": "n: number of subjects who experienced severe exacerbation", "setting": "[2]", "result": "(n = 35)"}, {"measurement": "Yearly Exacerbation Rate", "setting": "masitinib 6 mg/kg/day oral, blood eosinophils higher than 300 cells/μL", "result": 0.29}, {"measurement": "Number of Severe Exacerbations", "setting": "[3]", "result": 29}, {"measurement": "n: number of subjects who experienced severe exacerbation", "setting": "[3]", "result": "(n = 19)"}, {"measurement": "Yearly Exacerbation Rate", "setting": "masitinib 6 mg/kg/day oral, blood eosinophils lower than 150 cells/μL", "result": "0.36 severe exacerbations per year"}, {"measurement": "Number of Severe Exacerbations", "setting": "[4]", "result": 27}, {"measurement": "n: number of subjects who experienced severe exacerbation", "setting": "[4]", "result": "(n = 15)"}, {"measurement": "Yearly Exacerbation Rate", "setting": "masitinib 6 mg/kg/day oral, blood eosinophils ranging from 150 to 300 cells/μL", "result": "0.38 severe exacerbations per year"}, {"measurement": "Number of Severe Exacerbations", "setting": "[5]", "result": 38}, {"measurement": "n: number of subjects who experienced severe exacerbation", "setting": "[5]", "result": "(n = 20)"}, {"measurement": "Rate ratio (Estimate) for asthma exacerbations", "setting": "[6]", "result": 0.66}, {"measurement": "Rate ratio (Estimate) for asthma exacerbations", "setting": "[7]", "result": 0.81}, {"measurement": "Rate ratio (Estimate) for asthma exacerbations", "setting": "[8]", "result": 0.59}, {"measurement": "Rate ratio (Estimate) for asthma exacerbations", "setting": "[9]", "result": 0.97}, {"measurement": "Rate ratio (Estimate) for asthma exacerbations", "setting": "[10]", "result": 0.72}, {"measurement": "Reduction in Severe Exacerbation", "setting": "[6]", "result": 34, "unit": "%"}, {"measurement": "Reduction in Severe Exacerbation", "setting": "masitinib vs placebo, blood eosinophils equal to or higher than 150 cells/μL, listed as masitinib", "result": 33, "unit": "%"}, {"measurement": "rate ratio for asthma exacerbations", "setting": "[11]", "result": 0.59}, {"measurement": "reduction (improvement) in severe exacerbation", "setting": "[11]", "result": 41, "unit": "%"}, {"measurement": "Reduction in Severe Exacerbation", "setting": "[7]", "result": 19, "unit": "%"}, {"measurement": "Reduction in Severe Exacerbation", "setting": "[8]", "result": 41, "unit": "%"}, {"measurement": "Reduction in Severe Exacerbation", "setting": "[9]", "result": 3, "unit": "%"}, {"measurement": "difference in exacerbation rate versus placebo", "setting": "[9]", "result": "no discernable difference"}, {"measurement": "Reduction in Severe Exacerbation", "setting": "masitinib vs placebo, blood eosinophils lower than 150 cells/μL, listed as masitinib", "result": 3, "unit": "%"}, {"measurement": "Reduction in Severe Exacerbation", "setting": "[10]", "result": 28, "unit": "%"}, {"measurement": "Reduction in Severe Exacerbation", "setting": "masitinib vs placebo, blood eosinophils ranging from 150 to 300 cells/μL, listed as masitinib", "result": 28, "unit": "%"}]}]}
